The NIST ThermoML archive (doi:10.1021/je100615j)

Experiment: mn = molality of the nth substance listed, in mol/kg
Conditions: 101.3 kPa, Liquid, Vibrating tube method

O=[N+]([O-])[O-].O=[N+]([O-])[O-].O=[N+]([O-])[O-].[Ce+3] [cerium nitrate] + O
mass density [kg/m3]
Conditions	m1 = 0.5112	m1 = 1.031	m1 = 1.555	m1 = 1.997	m1 = 3.131	m1 = 3.968	m1 = 4.462
293.15 K	1131.2	1252.8	1361.9	1446.2	1633.2	1746.4	1806
298.15 K	1129.3	1250.2	1358.8	1443.1	1629.1	1742.4	1801.8
308.15 K	1124.7	1244.4	1352	1435.7	1620.5	1733.1	1792.2

O=[N+]([O-])[O-].O=[N+]([O-])[O-].O=[N+]([O-])[O-].[Nd+3] [neodymium(III) nitrate] + O
mass density [kg/m3]
Conditions	m1 = 0.522	m1 = 1.021	m1 = 1.555	m1 = 2.093	m1 = 3.086	m1 = 4.124	m1 = 4.297
293.15 K	1136.1	1255.1	1369.8	1474.7	1642.1	1785.9	1807
298.15 K	1134.2	1252.5	1366.7	1471.1	1637.8	1781.1	1802.7
308.15 K	1129.6	1246.7	1359.9	1463.5	1628.8	1771.4	1792.8

O=[N+]([O-])[O-].O=[N+]([O-])[O-].O=[N+]([O-])[O-].[Y+3] [yttrium nitrate] + O
mass density [kg/m3]
Conditions	m1 = 0.4989	m1 = 0.9965	m1 = 1.497	m1 = 1.982	m1 = 2.947	m1 = 3.945	m1 = 4.957
293.15 K	1105.5	1202.6	1290.8	1368.7	1502.8	1615.7	1708.9
298.15 K	1103.5	1200.2	1287.8	1365.4	1498.9	1611.4	1704.3
308.15 K	1099.2	1194.7	1281.4	1358.2	1490.5	1602.2	1694.7
